Source: EP0684822B1, “CARBOCYCLIC DEOXYGUANOSINE ANALOGS FOR THE TREATMENT OF VIRAL INFECTIONS” (SOUTHERN RESEARCH INSTITUTE, priority 1993, dated 1994)
Values after ≈ are worked out from the molar mass of the structure shown. Values joined by “and” are separate entries in the source; they are usually repeats but may differ in a detail not shown here. Equal values may be shown once.

What was measured:
HSV-2 (strain MS, TK+) = test: Antiviral activity against HSV-2; type: cell-based
Experimental: (§1) D-2'-CdG and L-2'-CdG were tested, alongside D,L-2'-CdG, against both HSV-1 (strain 377, TK+; obtained from Dr. Earl Kern, University of Alabama) and HSV-2 (strain MS, TK+; also obtained from Dr. Earl Kern). In these tests (Table 5), Ara-A and acyclovir (ACV) were the positive control drugs. In four tests vs. HSV-1, the antiviral activity (VR) and potency (MIC50) of D-2'-CdG were approximately the same as those of racemic 2-CdG. L-2'-CdG was only modestly active.
These compounds were tested against HSV-2(TK^+). The VR of ACV was somewhat higher than the VR values of D-2'-CdG and D,L-2'-CdG, but the values of MIC50 of the two forms of 2'-CdG were lower. In addition, experiments comparing the antiviral activity D-2'-CdG with acyclovir against HSV-1 in human foreskin fibroblasts have shown an even greater potency, in favor of D-2'-CdG.

HSV-1 (strain 377, TK+) = test: Antiviral activity against HSV-1; type: cell-based
Experimental: as §1

HBV = HBV DNA production and replication in 2.2.15 cell cultures; type: cell-based, Hepatitis B virus (HBV); conditions: 100 uM
Experimental: 2'-CdG was tested at three concentrations (50 ng/ml, 500 ng/ml, and 5 ug/ml) against the HBV-producing, human liver cell line, 2.2.15 (Sells et al., J. Virol. 62:2836, 1989). A racemic (D,L) preparation, as well as the purified D and L isomers were tested. For these analyses compounds were tested in duplicate at all concentrations. Ara-AMP and ddG (2'3'-dideoxyguanosine) were used as HBV inhibitory control compounds. […] The nucleoside analog, ddG was used as an additional control compound since ddG has activity against duck hepatitis B virus in chronically infected Peking ducks (Lee et al., Antimicrob. Agents Chemother. 33:336, 1989) and 2'-CdG is also a deoxyguanosine analog.
2.2.15 cells were seeded in 6 well culture plates and grown to confluence over a 10 day period in medium with 5% FBS. Test compounds were then added daily for a continuous 10 day period in medium with 1% dialyzed FBS. […] Compounds were tested, in duplicate cultures, at 3 concentrations covering a 100-fold range. Culture medium (changed daily during the treatment period) was collected and stored for analysis of extracellular (virion) HBV DNA from days 0, 3, 6, and 10 of the treatment period. This allowed for an analysis of the level of HBV virion production during discrete 24 hour intervals and reduced the potential for the buildup of toxic metabolites derived from the test compounds. Treated cells were lysed following the 10th day of treatment for the analysis of intracellular HBV genomic forms. HBV DNA was analyzed in a quantitative manner for (i) overall levels (both extracellular and intracellular DNA) and (ii) the relative rate of HBV replication (intracellular DNA only).
HBV DNA levels were measured by comparison to known amounts of HBV DNA standards applied to every nitrocellulose filter (gel or slot blot) using an AMBIS Beta Scanner. Standard curves, generated by multiple analyses, were used to correlate CPM measurements with relative levels of target HBV DNA. The levels of HBV DNA in each of three classes of intracellular viral genomic forms were individually quantitated: integrated HBV DNA, episomal monomeric genomes and HBV DNA replication intermediates (RI). Integrated HBV DNA was used to normalize the relative amounts of DNA in each lane because the levels of this class of HBV DNA would be expected to remain constant on a per cell basis. The levels of the monomeric HBV genomes and RI were used as an indicator of the relative level of HBV replication.

human CMV = test: In vitro activity against human CMV in human foreskin fibroblast cells; type: cell-based; conditions: Human betaherpesvirus 5, read-out: ED50 value (median dose at which 50% antiviral efficacy is observed)
Experimental: The in vitro activity of D-2'-CdG was also compared with the current investigational drug of choice for human CMV, DHPG. These experiments were carried out in human foreskin fibroblast cells.

HSV-1 TK = biological target: T1, HSV-1 TK (Human herpesvirus 1, UniProt P0DTH5); test: Competitive inhibition of [3H]-thymidine phosphorylation by partially purified HSV-1 TK; type: biochemical
T1 construct: HSV thymidine kinase (HSV TK) was isolated from HELA (BU25) cells infected with the SW148 strain of HSV-1; made in house; host or cells: HeLa (BU25) thymidine-kinase-deficient cells infected with HSV-1 strain S148/SW148
Experimental: The Ki's were determined from a plot of the slope of each line versus the concentration of the competitor (D-, L, or D,L-2'CdG) and are summarized below: TABLE 2

[1] = 24 hours following 10th day of treatment

T1 sequence (P0DTH5 whole entry): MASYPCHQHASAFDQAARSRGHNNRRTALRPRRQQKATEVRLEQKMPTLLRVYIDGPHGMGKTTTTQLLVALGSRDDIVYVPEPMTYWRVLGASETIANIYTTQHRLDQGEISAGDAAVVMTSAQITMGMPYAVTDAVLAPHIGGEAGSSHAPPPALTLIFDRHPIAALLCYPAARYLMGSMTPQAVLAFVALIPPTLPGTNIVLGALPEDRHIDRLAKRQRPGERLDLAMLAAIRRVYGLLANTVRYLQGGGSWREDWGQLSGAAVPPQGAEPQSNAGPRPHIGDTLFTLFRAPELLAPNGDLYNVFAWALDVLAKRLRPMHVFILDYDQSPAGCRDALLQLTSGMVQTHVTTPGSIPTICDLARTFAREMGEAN

In the case of Nc1ncnc2c1ncn2[C@@H]1O[C@H](CO)[C@@H](O)[C@@H]1O [Ara-A, adenosine arabinoside, reference compound], the VR (HSV-2 (strain MS, TK+); HSV-2) is reported as 1.3, the EC50 (HSV-2 (strain MS, TK+); Human alphaherpesvirus 2, read-out: Mic50) is reported as 50 µg/mL (≈ 187 µM) and the VR (HSV-1 (strain 377, TK+); HSV-1, range of tests) is reported as 1.6-2.5. For the same molecule, the EC50 (HSV-1 (strain 377, TK+); Human alphaherpesvirus 1, read-out: Mic50) was 10 to 34 µg/mL (≈ 37.4 to 127 µM).

With Nc1nc2c(ncn2[C@H]2CC[C@@H](CO)O2)c(=O)[nH]1 [DDG, 2'3'-dideoxyguanosine, reference compound] the “INTRACELLULAR HBV DNA INTEG.” value (HBV; [1]) was 1.6 PG/UG CELL DNA and 1.7 PG/UG CELL DNA, the “INTRACELLULAR HBV DNA MONO.” value (HBV; [1]) was 0.2 PG/UG CELL DNA and 0.1 PG/UG CELL DNA and the “INTRACELLULAR HBV DNA RI” value (HBV; [1]) was 0.1 PG/UG CELL DNA. For the same molecule, the “HBV DNA IN CULTURE MEDIUM DAY 0” value (HBV; day 0 of treatment) was 49 pg/mL and 58 pg/mL, the “HBV DNA IN CULTURE MEDIUM DAY 3” value (HBV; day 3) was 35 pg/mL and 41 pg/mL and the “HBV DNA IN CULTURE MEDIUM DAY 10” value (HBV; day 10) was 0 pg/mL.

Nc1nc(O)c2ncn(COC(CO)CO)c2n1 [DHPG, dihydroxy propoxymethyl guanine, reference compound] gave an EC50 (human CMV) of 0.2 µg/mL (≈ 0.784 µM).

Nc1nc2c(ncn2[C@H]2C[C@H](O)[C@@H](CO)O2)c(=O)[nH]1 [dGuo, reference compound] showed a Ki (HSV-1 TK) of 10.5 µM.
